EC50 data for 17 molecules are collected here from patent US20250059183A1, “PYRIDINE[4,3-D]PYRIMIDINE COMPOUND AS TLR7/8 AGONIST” (SHANGHAI VISONPHARMA CO., LTD., priority 2021, published 2025).

The target in one test is T1, human TLR8 (Homo sapiens, UniProt Q9NR97).
T1 construct: host or cells: HEK-Blue hTLR8 (HEK293-derived reporter cells)
T1 sequence (Q9NR97 27-1041): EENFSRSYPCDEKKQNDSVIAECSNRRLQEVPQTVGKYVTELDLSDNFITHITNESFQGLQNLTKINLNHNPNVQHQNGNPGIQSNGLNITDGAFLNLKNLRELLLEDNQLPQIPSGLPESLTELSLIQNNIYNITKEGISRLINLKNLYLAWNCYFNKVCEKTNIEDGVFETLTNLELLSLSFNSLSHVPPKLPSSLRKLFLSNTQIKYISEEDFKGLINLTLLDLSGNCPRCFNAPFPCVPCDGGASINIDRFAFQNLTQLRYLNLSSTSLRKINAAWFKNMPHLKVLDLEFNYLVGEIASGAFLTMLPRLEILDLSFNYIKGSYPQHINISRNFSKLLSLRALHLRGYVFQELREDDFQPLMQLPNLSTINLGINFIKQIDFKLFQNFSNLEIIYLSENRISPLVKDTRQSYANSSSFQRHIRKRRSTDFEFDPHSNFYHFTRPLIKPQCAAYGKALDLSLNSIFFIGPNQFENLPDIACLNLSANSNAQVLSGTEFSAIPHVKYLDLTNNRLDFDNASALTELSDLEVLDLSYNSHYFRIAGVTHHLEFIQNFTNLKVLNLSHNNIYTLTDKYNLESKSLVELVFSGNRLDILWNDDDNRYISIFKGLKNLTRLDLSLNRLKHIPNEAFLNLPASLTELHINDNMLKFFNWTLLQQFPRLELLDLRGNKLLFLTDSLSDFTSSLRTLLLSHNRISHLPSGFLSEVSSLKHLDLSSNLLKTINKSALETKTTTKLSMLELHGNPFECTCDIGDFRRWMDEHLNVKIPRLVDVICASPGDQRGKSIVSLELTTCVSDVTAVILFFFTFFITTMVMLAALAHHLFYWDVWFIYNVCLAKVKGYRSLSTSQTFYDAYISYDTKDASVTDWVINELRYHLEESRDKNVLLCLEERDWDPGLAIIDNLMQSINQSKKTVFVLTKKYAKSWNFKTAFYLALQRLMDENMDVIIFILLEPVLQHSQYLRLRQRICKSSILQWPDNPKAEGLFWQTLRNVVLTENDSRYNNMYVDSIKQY
Briefly: HEK-Blue hTLR8 SEAP reporter gene agonist assay. The test is classed as cell-based. The settings on record: HEK-Blue hTLR8 cells, 16 to 22 hours incubation. The method, then: (§1) HEK-Blue™ cells that stably express human TLR7 or TLR8 are used to evaluate the agonistic activity of the compounds on TLR7 or TLR8, which is determined by the induction of the expression of SEAP reporter gene under the control of minimum IFN-β promoter fusion to 5×NF-κB and AP-1 binding sites. The assay is conducted as below:
(§2) HEK-Blue™ hTLR7 (Invivogen, 80,000 cells per well) or HEK-Blue™ hTLR8 (Invivogen, 60,000 cells per well) were added to the 96-well cell culture plate, followed by adding of the test compound. The final concentration of the test compound in the medium ranged from […], and was incubated for 16 to 22 hours. According to the manufacturer's instructions, the HEK-Blue assay reagent Quanti-blue (Invivogen) was used to measure SEAP levels in cell media. Optical density at 650 nm (OD650) was measured by Neo2 multifunction plate reader (Bio-tek). The half effective concentration (EC50) was calculated using GraphPad Prism.
(In general: In a reporter assay the amount or activity of a reporter protein is the signal.)

The next test concerns the target T2, human TLR7 (Homo sapiens, UniProt Q9NYK1).
T2 construct: host or cells: HEK-Blue hTLR7 (HEK293-derived reporter cells)
T2 sequence (Q9NYK1 27-1049): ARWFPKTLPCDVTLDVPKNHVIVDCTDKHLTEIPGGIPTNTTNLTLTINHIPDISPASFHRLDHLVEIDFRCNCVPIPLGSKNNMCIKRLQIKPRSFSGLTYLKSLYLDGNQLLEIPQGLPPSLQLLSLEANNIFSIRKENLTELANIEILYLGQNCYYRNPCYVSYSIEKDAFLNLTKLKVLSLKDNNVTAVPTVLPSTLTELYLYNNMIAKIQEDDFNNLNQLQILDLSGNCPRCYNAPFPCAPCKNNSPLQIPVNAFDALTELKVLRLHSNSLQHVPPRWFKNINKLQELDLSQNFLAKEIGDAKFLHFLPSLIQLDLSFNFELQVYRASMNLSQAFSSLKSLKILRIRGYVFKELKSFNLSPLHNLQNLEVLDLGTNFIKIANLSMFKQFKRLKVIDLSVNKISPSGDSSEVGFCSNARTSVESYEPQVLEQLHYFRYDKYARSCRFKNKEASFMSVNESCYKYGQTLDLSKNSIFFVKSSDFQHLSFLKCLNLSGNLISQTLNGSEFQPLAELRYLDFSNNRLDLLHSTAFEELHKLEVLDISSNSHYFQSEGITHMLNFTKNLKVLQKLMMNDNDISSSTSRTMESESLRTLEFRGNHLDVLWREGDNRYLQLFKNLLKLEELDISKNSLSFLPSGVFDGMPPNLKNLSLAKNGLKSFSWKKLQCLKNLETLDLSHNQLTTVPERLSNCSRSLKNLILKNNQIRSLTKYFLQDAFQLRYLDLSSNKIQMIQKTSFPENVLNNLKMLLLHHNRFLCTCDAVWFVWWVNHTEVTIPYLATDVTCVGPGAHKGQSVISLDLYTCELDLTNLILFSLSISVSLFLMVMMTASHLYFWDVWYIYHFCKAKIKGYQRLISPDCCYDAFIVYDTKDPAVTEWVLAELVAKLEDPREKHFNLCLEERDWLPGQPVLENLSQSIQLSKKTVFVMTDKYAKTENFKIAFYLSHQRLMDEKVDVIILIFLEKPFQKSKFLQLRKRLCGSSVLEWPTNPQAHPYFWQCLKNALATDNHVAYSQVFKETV
Nature of the test: HEK-Blue hTLR7 SEAP reporter gene agonist assay. The test is classed as cell-based. To be noted: HEK-Blue hTLR7 cells, 16 to 22 hours incubation. The method, then:
as §1, §2

Structures are written as SMILES.

One may read the EC50 as the midpoint of the concentration-response curve. The low end stands for an effect from little substance, the high end for a need for much substance. For the molecule `CCC[C@@H](CCO)Nc1nc(N)nc2ccn(Cc3ccc(CN4CCCC4)cc3)c(=O)c12` [Compound I-118, (S)-2-amino-4-((1-hydroxyhexan-3-yl)amino)-6-(4-(pyrrolidin-1-ylmethyl)benzyl)pyrido[4,3-d]pyrimidin-5(6H)-one], the EC50 amounted to 52 nM on human TLR8 and 40 nM on human TLR7.

Turning to `CCCCNc1nc(N)nc2ccn(Cc3ccc(C(=O)N4CCN(CCO)CC4)cc3OC)c(=O)c12` [Compound I-120, 2-amino-4-(butylamino)-6-(4-(4-(2-hydroxyethyl)piperazine-1-carbonyl)-2-methoxybenzyl)pyrido[4,3-d]pyrimidin-5(6H)-one], the results for the EC50 at human TLR8 and at human TLR7 were 53 nM and 46 nM, respectively.

As to `CCC[C@@H](C)Nc1nc(N)nc2ccn(Cc3ccc(C(=O)N4CCN(CCO)CC4)cc3OC)c(=O)c12` [Compound I-123, (R)-2-amino-6-(4-(4-(2-hydroxyethyl)piperazine-1-carbonyl)-2-methoxybenzyl)-4-(pentan-2-ylamino)pyrido[4,3-d]pyrimidin-5(6H)-one], the results for the 50% effective concentration (EC50) on human TLR8 and at human TLR7 were 34 nM and 23 nM, respectively.

Regarding `CCC[C@@H](CO)Nc1nc(N)nc2ccn(Cc3ccc(CN4CCCC4)cc3)c(=O)c12` [Compound I-127, (S)-2-amino-4-((1-hydroxypentan-2-yl)amino)-6-(4-(pyrrolidin-1-ylmethyl)benzyl)pyrido[4,3-d]pyrimidin-5(6H)-one], the EC50 at human TLR8 is 3 nM; at human TLR7, 44 nM.

`CCCC(CCC)Nc1nc(N)nc2ccn(Cc3ccc(C(=O)N4CCNCC4)cc3OC)c(=O)c12` [Compound I-132, 2-amino-4-(heptan-4-ylamino)-6-(2-methoxy-4-(piperazine-1-carbonyl)benzyl)pyrido[4,3-d]pyrimidin-5(6H)-one]: the EC50 on human TLR8 amounted to 660 nM; at human TLR7, 84 nM.

For `CCC[C@@H](CC)Nc1nc(N)nc2ccn(Cc3ccc(CN4CCCC4)cc3)c(=O)c12` [Compound I-138, (R)-2-amino-4-(hexan-3-ylamino)-6-(4-(pyrrolidin-1-ylmethyl)benzyl)pyrido[4,3-d]pyrimidin-5(6H)-one], the EC50 on human TLR8 came to 97 nM; at human TLR7, 58 nM.

On to `CCC[C@@H](C)Nc1nc(N)nc2ccn(Cc3ccc(CN(C)CCO)cc3)c(=O)c12` [Compound I-139, (R)-2-amino-6-(4-(((2-hydroxyethyl)(methyl)amino)methyl)benzyl)-4-(pentan-2-ylamino)pyrido[4,3-d]pyrimidin-5(6H)-one], for which the EC50 turned out to be 20 nM at human TLR8 and 30 nM on human TLR7.

Take `CCC[C@@H](C)Nc1nc(N)nc2ccn(Cc3ccc(CN(CCO)CCO)cc3)c(=O)c12` [Compound I-141, (R)-2-amino-6-(4-((bis(2-hydroxyethyl)amino)methyl)benzyl)-4-(pentan-2-ylamino)pyrido[4,3-d]pyrimidin-5(6H)-one]: the EC50 at human TLR8 was found to be 20 nM; at human TLR7, 50 nM.

Regarding `CCC[C@@H](CCO)Nc1nc(N)nc2ccn(Cc3ccc(CN4CC5(COC5)C4)cc3)c(=O)c12` [Compound I-142, (S)-6-(4-((2-oxa-6-azaspiro[3.3]heptan-6-yl)methyl)benzyl)-2-amino-4-((1-hydroxyhexan-3-yl)amino)pyrido[4,3-d]pyrimidin-5(6H)-one], the EC50 turned out to be 40 nM on human TLR8 and 70 nM at human TLR7.

In the case of `CCC[C@@H](C)Nc1nc(N)nc2ccn(Cc3ccc(CN4CCN(CCO)CC4)cc3)c(=O)c12` [Compound I-148, (R)-2-amino-6-(4-((4-(2-hydroxyethyl)piperazin-1-yl)methyl)benzyl)-4-(pentan-2-ylamino)pyrido[4,3-d]pyrimidin-5(6H)-one], the EC50 at human TLR8 and at human TLR7 was 40 nM throughout.

As to `CCC[C@@H](C)Nc1nc(N)nc2ccn(Cc3ccc(CN4CC5(COC5)C4)cc3)c(=O)c12` [Compound I-150, (R)-6-(4-((2-oxa-6-azaspiro[3.3]heptan-6-yl)methyl)benzyl)-2-amino-4-(pentan-2-ylamino)pyrido[4,3-d]pyrimidin-5(6H)-one], the EC50 is 30 nM at human TLR8 and 40 nM on human TLR7.

Turning to `CCC[C@@H](C)Nc1nc(N)nc2ccn(Cc3ccc(C(=O)N4CC5CC(C4)N5)cc3)c(=O)c12` [Compound I-151, 6-(4-(3,6-diazabicyclo[3.1.1]heptane-3-carbonyl)benzyl)-2-amino-4-(((R)-pentan-2-yl)amino)pyrido[4,3-d]pyrimidin-5(6H)-one], the EC50 is 30 nM at human TLR8 and 80 nM at human TLR7.

Consider `CCC[C@@H](C)Nc1nc(N)nc2ccn(Cc3ccc(CN4CCCC4)cc3Cl)c(=O)c12` [Compound I-152, (R)-2-amino-6-(2-chloro-4-(pyrrolidin-1-ylmethyl)benzyl)-4-(pentan-2-ylamino)pyrido[4,3-d]pyrimidin-5(6H)-one], for which the EC50 at human TLR8 amounted to 110 nM; on human TLR7, 80 nM.

In the case of `CCC[C@@H](C)Nc1nc(N)nc2ccn(Cc3ccc(OCCNC)nc3)c(=O)c12` [Compound I-153, (R)-2-amino-6-((6-(2-(methylamino)ethoxy)pyridin-3-yl)methyl)-4-(pentan-2-ylamino)pyrido[4,3-d]pyrimidin-5(6H)-one], the figures for the EC50 on human TLR8 and at human TLR7 were 40 nM and 90 nM, respectively.

Consider `CCC[C@@H](C)Nc1nc(N)nc2ccn(Cc3ccc(CN4CCCC4)cc3OC)c(=O)c12` [Compound I-154, (R)-2-amino-6-(2-methoxy-4-(pyrrolidin-1-ylmethyl)benzyl)-4-(pentan-2-ylamino)pyrido[4,3-d]pyrimidin-5(6H)-one], for which the EC50 at human TLR8 is 40 nM; at human TLR7, 30 nM.

In the case of `CCC[C@@H](CO)Nc1nc(N)nc2ccn(Cc3ccc(CN4CCCC4)cc3OC)c(=O)c12` [Compound I-158, (S)-2-amino-4-((1-hydroxypentan-2-yl)amino)-6-(2-methoxy-4-(pyrrolidin-1-ylmethyl)benzyl)pyrido[4,3-d]pyrimidin-5(6H)-one], the results for the EC50 at human TLR8 and on human TLR7 were 4 nM and 10 nM, respectively.

As to `CCC[C@@H](C)Nc1nc(N)nc2ccn(Cc3ccc(CN(C)CCO)cc3OC)c(=O)c12` [Compound I-160, (R)-2-amino-6-(4-(((2-hydroxyethyl)(methyl)amino)methyl)-2-methoxybenzyl)-4-(pentan-2-ylamino)pyrido[4,3-d]pyrimidin-5(6H)-one], the EC50 on human TLR8 and on human TLR7 was 20 nM each time.
